# According to ChEMBL document CHEMBL5385973, “Progress in small-molecule inhibitors targeting PD-L1” (RSC Med Chem, 2024):
# Columns and labels:
# [1] = biological target: T1, Programmed cell death protein 1/Programmed cell death 1 ligand 1 (Homo sapiens, UniProt Q9NZQ7); assay: Inhibition of PD-1/PD-L1 (unknown origin) protein-protein interaction incubated for 15 mins by TR-FRET assay; assay type: protein-complex assay
# [2] = biological target: T1, Programmed cell death protein 1/Programmed cell death 1 ligand 1; assay: Inhibition of human PD-1/PD-L1 interaction incubated for 24 hrs by HTRF assay; assay type: protein-complex assay
# [3] = biological target: T1, Programmed cell death protein 1/Programmed cell death 1 ligand 1; assay: Inhibition of PD-1/PD-L1 interaction (unknown origin) by AlphaLISA assay relative to control; assay type: protein-complex assay
# [4] = biological target: T1, Programmed cell death protein 1/Programmed cell death 1 ligand 1; assay: Inhibition of PD-1/PD-L1 (unknown origin) interaction incubated for 2 hr by TR-FRET assay; assay type: protein-complex assay
# Jurkat = assay: Induction of T cell activation in human Jurkat T cells overexpressing PD-1 co-cultured with Chinese hamster CHO cells overexpressing PD-L1 assessed as increase in luciferase activity incubated for 6 hrs by Bio-GloTM reagent based immune checkpoint blockade assay; assay type: functional
# [5] = biological target: Programmed cell death 1 ligand 1 (Homo sapiens) (UniProt Q9NZQ7); assay: Binding affinity to PD-L1 (unknown origin) assessed as Gibbs free energy change
# Sequence of Programmed cell death 1 ligand 1 (Homo sapiens) (Q9NZQ7 whole entry): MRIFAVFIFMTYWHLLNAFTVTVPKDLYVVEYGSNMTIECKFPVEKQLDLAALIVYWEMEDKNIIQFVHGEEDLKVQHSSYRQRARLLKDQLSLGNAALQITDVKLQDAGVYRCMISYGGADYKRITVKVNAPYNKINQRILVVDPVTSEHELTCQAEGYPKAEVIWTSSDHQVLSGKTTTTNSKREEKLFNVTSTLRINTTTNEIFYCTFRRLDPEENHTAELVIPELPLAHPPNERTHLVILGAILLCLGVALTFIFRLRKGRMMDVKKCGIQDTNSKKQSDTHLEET
# [6] = biological target: T1, Programmed cell death protein 1/Programmed cell death 1 ligand 1; assay: Inhibition of PD-1 (unknown origin)/PD-L1 (unknown origin) interaction by HTRF binding assay; assay type: protein-complex assay
# [7] = biological target: T1, Programmed cell death protein 1/Programmed cell death 1 ligand 1; assay: Inhibition of PD-1/PD-L1 (unknown origin) interaction; assay type: protein-complex assay
# [8] = biological target: T1, Programmed cell death protein 1/Programmed cell death 1 ligand 1; assay: Inhibition of PD-1/PD-L1 (unknown origin) interaction incubated for 1 hr by HTRF assay; assay type: protein-complex assay
# [9] = biological target: T1, Programmed cell death protein 1/Programmed cell death 1 ligand 1; assay: Inhibition of PD-1/PD-L1 interaction (unknown origin) by TR-FRET assay; assay type: protein-complex assay
# [10] = biological target: T1, Programmed cell death protein 1/Programmed cell death 1 ligand 1; assay: Inhibition of human […] interaction incubated for 15 mins by TR-FRET assay; assay type: protein-complex assay
# T1 sequence (Q15116 whole entry): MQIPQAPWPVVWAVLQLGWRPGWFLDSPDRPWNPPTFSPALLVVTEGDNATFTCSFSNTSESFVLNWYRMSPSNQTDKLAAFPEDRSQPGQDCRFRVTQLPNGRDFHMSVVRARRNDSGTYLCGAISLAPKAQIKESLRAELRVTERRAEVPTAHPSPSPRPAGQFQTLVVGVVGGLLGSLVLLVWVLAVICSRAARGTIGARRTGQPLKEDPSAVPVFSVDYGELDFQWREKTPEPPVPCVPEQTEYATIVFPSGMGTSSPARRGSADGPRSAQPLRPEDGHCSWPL
# T1 sequence (Q9NZQ7 whole entry): as the sequence (Q9NZQ7 whole entry) above
compound,measurement,setting,value
Cc1cc(/C=C/c2ccc3cc(N(C)C)ccc3[n+]2C)c(C)n1-c1ccccc1,IC50,[1],29.7 nM
Cc1c(/C=C/c2ccc(CNC(C)(CO)C(=O)O)cc2C(F)(F)F)cccc1-c1ccc2c(c1)OCCO2 (centres undefined),IC50,[2],18 nM
Cc1c(COc2cc(OCc3cncc(C#N)c3)c(CNC(C)(C)C(=O)O)cc2Cl)cccc1-c1ccccc1,IC50,[3],2.7 nM
Cc1c(COc2cc(OCc3cncc(C#N)c3)c(CN(CCCN(C)C)CCS(=O)(=O)O)cc2Cl)cccc1-c1ccc2c(c1)OCCO2,IC50,[3],2.7 nM
Cn1nc(Nc2cccc(-c3ccc4c(c3)OCCO4)c2Cl)c2ccc(CN[C@H](CO)C(=O)O)cc21,IC50,[4],9.6 nM
same,EC50,Jurkat,1610 nM
Cc1c(COc2cc(OCc3cccc(C#N)c3)c(CN3C[C@H](O)C[C@@H]3C(=O)O)cc2Cl)cccc1-c1ccc2c(c1)OCCO2,deltaG,[5],-34 kcal/mol
CC(C)OC(=O)[C@H](CO)NCc1cc(Cl)c(OCc2cccc(-c3ccccc3)c2Br)cc1OCc1cccnc1,IC50,[6],45.2 nM
O=C(O)[C@H](CO)NCc1ccc(Nc2nsc3c(-c4ccc5c(c4)OCCO5)cccc23)c(Br)c1,IC50,[7],5.7 nM
Cc1c(COc2cc(OCc3ccc(OC(F)(F)F)nc3)c(N3CCCCC3C(=O)O)cc2Cl)cccc1-c1ccccc1 (centres undefined),IC50,[8],56.6 nM
O=C(O)[C@H](CO)NCc1cc(Cl)c(OCc2cccc(-c3ccccc3)c2Br)cc1OCc1cccnc1,IC50,[6],1.1 nM
Cc1c(COc2cc(OCc3cccc(C#N)c3)c(CNC(CO)(CO)CO)cc2Cl)cccc1-c1cccc(-c2cc(C(=O)N3CC[C@@H](O)C3)no2)c1,IC50,[9],23 nM
CS(=O)(=O)c1cncc(CCc2nc(OCc3cccc(-c4cccc(-c5ccc6c(c5)C[C@H](N)C6)c4Cl)c3Cl)c(Br)cc2CN2CCCC[C@@H]2C(=O)O)c1,IC50,[10],0.09 nM
Fc1cccc(-c2nccc(N[C@@H]3CO[C@@H]4[C@H]3OC[C@H]4NCc3ccccn3)n2)c1,deltaG,[5],-32 kcal/mol
